Test results as given in PubChem BioAssay AID330 (DTP/NCI, 2004).
Values joined by “and” are separate entries in the source; they are usually repeats but may differ in a detail not shown here. Equal entries are not always repeated. Toxic doses and inconclusive results are not listed. The calls were made as follows: active = survival T/C of 150% or more; inactive = T/C below 125% in these data.

Test system: P388 leukemia ip, CD2F1 mice, survival T/C
Assay: NCI In Vivo Anticancer Drug Screen. Data for tumor model P388 Leukemia (intraperitoneal) in CD2F1 (CDF1) mice
Conditions: endpoint: median survival time, higher = longer survival
Summary of the method: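 Mice carrying the transplanted tumor received test compound or vehicle. Survival was recorded in each group, and the value is the treated-group measurement divided by that of the vehicle-treated control group.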

[1] = dose: 50.0 mg/kg/injection, schedule: Q01DX005 (ip), vehicle: Klucel (hydroxypropylcellulose) (HPC)
[2] = dose: 100.0 mg/kg/injection, schedule: Q01DX005 (ip), vehicle: Klucel (hydroxypropylcellulose) (HPC)
[3] = dose: 200.0 mg/kg/injection, schedule: Q01DX005 (ip), vehicle: Klucel (hydroxypropylcellulose) (HPC)
[4] = dose: 50.0 mg/kg/injection, schedule: Q01DX005 (ip), vehicle: saline with Tween-80
[5] = dose: 100.0 mg/kg/injection, schedule: Q01DX005 (ip), vehicle: saline with Tween-80
[6] = dose: 200.0 mg/kg/injection, schedule: Q01DX005 (ip), vehicle: saline with Tween-80
[7] = dose: 100.0 mg/kg/injection, schedule: Q01DX001 (ip), vehicle: saline with Tween-80
[8] = dose: 200.0 mg/kg/injection, schedule: Q01DX001 (ip), vehicle: saline with Tween-80
[9] = dose: 50.0 mg/kg/injection, schedule: Q01DX009 (ip), vehicle: Klucel (hydroxypropylcellulose) (HPC)
[10] = dose: 100.0 mg/kg/injection, schedule: Q01DX009 (ip), vehicle: Klucel (hydroxypropylcellulose) (HPC)
[11] = dose: 200.0 mg/kg/injection, schedule: Q01DX009 (ip), vehicle: Klucel (hydroxypropylcellulose) (HPC)
[12] = dose: 50.0 mg/kg/injection, schedule: Q01DX001 (ip), vehicle: Klucel (hydroxypropylcellulose) (HPC)
[13] = dose: 100.0 mg/kg/injection, schedule: Q01DX001 (ip), vehicle: Klucel (hydroxypropylcellulose) (HPC)
[14] = dose: 100.0 mg/kg/injection, schedule: Q04DX002 (ip), vehicle: saline with Tween-80
[15] = dose: 200.0 mg/kg/injection, schedule: Q04DX002 (ip), vehicle: saline with Tween-80
[16] = dose: 400.0 mg/kg/injection, schedule: Q04DX002 (ip), vehicle: saline with Tween-80
[17] = dose: 100.0 mg/kg/injection, schedule: Q01DX009 (ip), vehicle: saline
[18] = dose: 60.0 mg/kg/injection, schedule: Q01DX005 (ip), vehicle: saline
[19] = dose: 120.0 mg/kg/injection, schedule: Q01DX005 (ip), vehicle: saline
[20] = dose: 240.0 mg/kg/injection, schedule: Q01DX005 (ip), vehicle: saline
[21] = dose: 25.0 mg/kg/injection, schedule: Q01DX009 (ip), vehicle: Klucel (hydroxypropylcellulose) (HPC)

Measured: T/C

CCCCNC(=S)S
inactive: dose: 100.0 mg/kg/injection, schedule: Q01DX009 (ip), vehicle: saline with Tween-80 109 % of control | dose: 200.0 mg/kg/injection, schedule: Q01DX009 (ip), vehicle: saline with Tween-80 109 % of control | dose: 400.0 mg/kg/injection, schedule: Q01DX009 (ip), vehicle: saline with Tween-80 104 % of control

CC1(C)CC(=O)C(C(c2ccccc2O)C2C(=O)CC(C)(C)CC2=O)C(=O)C1
inactive: [1] 102 % of control | [2] 102 % of control | [3] 102 % of control

CC1=C(C(=O)CC(=O)C(=O)Nc2cc(Cl)c(Cl)cc2Cl)Sc2ccccc2N1
inactive: [4] 101 % of control | [5] 102 % of control | [6] 98 % of control

CCOC(=O)C1=C(C)NC(=O)NC1c1cccs1 (configuration not stated)
inactive: [1] 98 % of control | [2] 96 % of control | [3] 97 % of control

NS(=O)(=O)c1ccc(N=c2c3ccccc3n(Cc3ccccc3)c3ccccc23)cc1
inactive: [4] 88 % of control | [5] 94 % of control

CC1C(=O)C(Cl)(Cl)C1(C)C (configuration not stated)
inactive: [7] 106 % of control | [8] 110 % of control

O=C1Nc2cnc(Cl)nc2Nc2cc(Cl)ccc21
inactive: [1] 95 % of control | [2] 95 % of control | [3] 92 % of control

CN(C)C1(c2ccc3ccccc3c2)CSC1
inactive: [7] 100 % of control | [8] 100 % of control | dose: 400.0 mg/kg/injection, schedule: Q01DX001 (ip), vehicle: saline with Tween-80 96 % of control

C=C(c1ccc(Cl)cc1)c1ccc(OC)c(OC)c1
inactive: [4] 94 % of control | [5] 99 % of control | [6] 97 % of control

CSc1cccc(NC(=O)OCCOc2ccc([N+](=O)[O-])cc2)c1
inactive: [9] 98 % of control | [10] 101 % of control | [11] 99 % of control

O=S(=O)(c1ccc(NC(=S)NCc2ccncc2)cc1)N1CCCCC1
inactive: [9] 97 % of control | [10] 95 % of control | [11] 98 % of control

COc1ccc2c(c1O)-c1c(OC)c(O)cc3c1C(C2)NCC3 (configuration not stated)
inactive: dose: 32.0 mg/kg/injection, schedule: Q01DX009 (ip), vehicle: Klucel (hydroxypropylcellulose) (HPC) 96 % of control | dose: 64.0 mg/kg/injection, schedule: Q01DX009 (ip), vehicle: Klucel (hydroxypropylcellulose) (HPC) 93 % of control | dose: 128.0 mg/kg/injection, schedule: Q01DX009 (ip), vehicle: Klucel (hydroxypropylcellulose) (HPC) 100 % of control | dose: 256.0 mg/kg/injection, schedule: Q01DX009 (ip), vehicle: Klucel (hydroxypropylcellulose) (HPC) 102 % of control

COC(=O)C1C2COc3ccccc3C2=NC1c1ccc([N+](=O)[O-])cc1 (configuration not stated)
inactive: dose: 25.0 mg/kg/injection, schedule: Q01DX001 (ip), vehicle: Klucel (hydroxypropylcellulose) (HPC) 91 % of control | [12] 96 % of control | [13] 95 % of control

C=CC(=O)P(=O)(OCC)OCC
inactive: dose: 100.0 mg/kg/injection, schedule: Q04DX002 (ip), vehicle: saline 107 % of control | dose: 200.0 mg/kg/injection, schedule: Q04DX002 (ip), vehicle: saline 103 % of control | dose: 400.0 mg/kg/injection, schedule: Q04DX002 (ip), vehicle: saline 98 % of control

Cc1cccc(N=Nc2c(C)nn(C(=S)S)c2C)c1C
inactive: [14] 100 % of control | [15] 99 % of control | [16] 98 % of control

COC1CC(C)(OC(C)=O)Cc2cc3c(c(OC(C)=O)c21)C(=O)c1c(OC(C)=O)cc2c(c1C3=O)OC1OC2(C)C(OC(C)=O)C(N(C)C)C1OC(C)=O (configuration not stated)
inactive: dose: 1.25 mg/kg/injection, schedule: Q01DX009 (ip), vehicle: other 102 % of control | dose: 2.5 mg/kg/injection, schedule: Q01DX009 (ip), vehicle: other 112 % of control and 106 % of control | dose: 5.0 mg/kg/injection, schedule: Q01DX009 (ip), vehicle: other 105 % of control and 101 % of control | dose: 10.0 mg/kg/injection, schedule: Q01DX009 (ip), vehicle: other 114 % of control and 115 % of control | dose: 20.0 mg/kg/injection, schedule: Q01DX009 (ip), vehicle: other 121 % of control

CN(C)c1ccc(N)c(N)c1
inactive: dose: 3.12 mg/kg/injection, schedule: Q01DX005 (ip), vehicle: saline 99 % of control | dose: 6.25 mg/kg/injection, schedule: Q01DX005 (ip), vehicle: saline 99 % of control | dose: 12.5 mg/kg/injection, schedule: Q01DX005 (ip), vehicle: saline 103 % of control | dose: 25.0 mg/kg/injection, schedule: Q01DX005 (ip), vehicle: saline 105 % of control and 106 % of control | [17] 98 % of control

CN(O)C(=O)C(C)(C)C
inactive: [5] 99 % of control | [6] 103 % of control | dose: 400.0 mg/kg/injection, schedule: Q01DX005 (ip), vehicle: saline with Tween-80 103 % of control

CCOc1cccc2c1CCC(O[Si](C)(C)C(C)(C)C)C2 (configuration not stated)
inactive: [4] 94 % of control | [5] 95 % of control | [6] 96 % of control

C[N+](C)(C)N=P(O)(N[N+](C)(C)C)Oc1ccccc1 (configuration not stated)
inactive: [18] 95 % of control | [19] 100 % of control | [20] 95 % of control

CNCC(=O)c1ccc(O)c(O)c1N=O
inactive: [14] 114 % of control | [15] 108 % of control | [16] 108 % of control

Cc1noc2c1N=C(c1ccccc1O)CC(c1ccccc1)C2 (configuration not stated)
inactive: [9] 100 % of control | [10] 110 % of control | [11] 99 % of control

C/C(N)=C/C(=O)Nc1ccccc1
inactive: [21] 109 % of control | [9] 109 % of control | [10] 97 % of control | [11] 108 % of control

CC1=CC(=C2C(=O)c3ccccc3C2=O)C=CN1CCCN1CCCCC1
inactive: dose: 50.0 mg/kg/injection, schedule: Q01DX009 (ip), vehicle: saline 103 % of control and 119 % of control | [17] 101 % of control and 106 % of control | dose: 200.0 mg/kg/injection, schedule: Q01DX009 (ip), vehicle: saline 106 % of control and 123 % of control | dose: 400.0 mg/kg/injection, schedule: Q01DX009 (ip), vehicle: saline 100 % of control

COc1ccc2c(c1)C(=O)C1(CC2)OC1c1cccnc1 (configuration not stated)
inactive: dose: 12.5 mg/kg/injection, schedule: Q01DX009 (ip), vehicle: other 110 % of control | dose: 25.0 mg/kg/injection, schedule: Q01DX009 (ip), vehicle: other 115 % of control | dose: 50.0 mg/kg/injection, schedule: Q01DX009 (ip), vehicle: other 100 % of control and 117 % of control | dose: 100.0 mg/kg/injection, schedule: Q01DX009 (ip), vehicle: other 115 % of control and 117 % of control | dose: 200.0 mg/kg/injection, schedule: Q01DX009 (ip), vehicle: other 94 % of control | dose: 400.0 mg/kg/injection, schedule: Q01DX009 (ip), vehicle: other 99 % of control

O=CN1CCCC1Cc1ccccc1 (configuration not stated)
inactive: [12] 101 % of control | [13] 96 % of control

CCC1(c2ccc(N)cc2)CCC(=O)NC1=O (configuration not stated)
inactive: [1] 91 % of control | [2] 100 % of control

CCCCCCCCCCCCCCCCCC[n+]1cccc(C2CCCN2C)c1 (configuration not stated) (tested in a mixture with another compound)
inactive: [21] 104 % of control

O=c1nc(-c2ccccc2)sc(=O)[nH]1
inactive: [9] 102 % of control | [10] 111 % of control

COc1ccn(CC(C)=O)c(=O)n1
inactive: [18] 100 % of control | [19] 100 % of control | [20] 100 % of control

N#CCNC=O
inactive: [18] 98 % of control | [19] 103 % of control | [20] 100 % of control

COC1(OC)C2(Cl)CC(C(=O)O)C1(Cl)C(Cl)=C2Cl (configuration not stated)
inactive: dose: 60.0 mg/kg/injection, schedule: Q01DX005 (ip), vehicle: saline with Tween-80 102 % of control | dose: 120.0 mg/kg/injection, schedule: Q01DX005 (ip), vehicle: saline with Tween-80 99 % of control | dose: 240.0 mg/kg/injection, schedule: Q01DX005 (ip), vehicle: saline with Tween-80 104 % of control

CN(NC(=O)C(=O)NCc1ccco1)C(=O)Nc1ccccc1
inactive: [1] 100 % of control | [2] 99 % of control | [3] 99 % of control
